Experimental data as given in patent publication US10329270B2, “Heteroaryl compounds as BTK inhibitors and uses thereof” (Merck Patent GmbH, priority 2013, dated 2019).
Structures can show the parent of a compound that is named as a salt.

Molecular target: T1, full-length human BTK (Homo sapiens, UniProt Q06187)
T1 construct: 2.5× stocks of full-length human BTK (08-080); purchased CarnaBio USA, Inc., Natick, Mass; 08-080
Experiment: Assay A: BTK IC50 Enzyme Assay (microfluidic off-chip mobility shift kinase assay)
Assay type: biochemical
Conditions: full-length human BTK, kinKDR peptide substrate, incubated 90 min at 27 C; read-out: Assay A (Time Dependent BTK Enzyme Assay IC50)
Experimental: Assay A: BTK IC50 Enzyme Assay
The following describes a microfluidic, off-chip mobility shift kinase assay used to measure inherent potency of compounds against BTK enzyme. Compounds described by embodiments of the present invention were assayed using this protocol and the data from the same is recorded in Table 2 within the column labeled: “Time Dependent BTK Enzyme Assay IC50”.
Stopped reactions were monitored at −2 PSI, −3000 V/−700 V in a LabChip 3000 plate reader from Caliper Life Sciences, a PerkinElmer Company (Hopkinton, Mass.), and the activity was measured by off-chip mobility shift assay measuring the charge/mass difference between substrate and product resulting from peptide phosphorilation. IC50 and efficacy were determined by plotting log [Inhibitor] vs. % Activity in GeneData Screener (Basel, Switzerland). […] I<1 uM and II>1 uM.

T1 sequence (Q06187 whole entry): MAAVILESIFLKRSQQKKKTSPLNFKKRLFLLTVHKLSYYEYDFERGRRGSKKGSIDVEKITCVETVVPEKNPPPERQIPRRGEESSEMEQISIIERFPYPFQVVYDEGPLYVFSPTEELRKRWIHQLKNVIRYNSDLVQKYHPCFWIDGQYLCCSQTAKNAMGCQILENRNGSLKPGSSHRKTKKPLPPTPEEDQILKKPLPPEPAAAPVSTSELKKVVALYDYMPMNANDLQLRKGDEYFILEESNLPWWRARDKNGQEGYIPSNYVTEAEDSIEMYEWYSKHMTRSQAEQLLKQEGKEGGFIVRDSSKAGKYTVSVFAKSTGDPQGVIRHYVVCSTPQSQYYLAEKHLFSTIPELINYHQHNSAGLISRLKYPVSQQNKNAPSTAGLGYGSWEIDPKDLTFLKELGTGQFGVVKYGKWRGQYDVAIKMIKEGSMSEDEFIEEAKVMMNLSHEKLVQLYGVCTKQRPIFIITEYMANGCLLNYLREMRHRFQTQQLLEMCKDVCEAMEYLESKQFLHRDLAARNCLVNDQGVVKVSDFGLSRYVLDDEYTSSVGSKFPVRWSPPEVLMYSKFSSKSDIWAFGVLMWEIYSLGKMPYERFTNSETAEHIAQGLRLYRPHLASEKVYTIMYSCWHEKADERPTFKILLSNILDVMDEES

Row | Structure (SMILES) | IC50
1 | C=CC(=O)N1CCC(c2ccc(C(N)=O)c(Nc3ccc(C(=O)N4CCN(C(=O)CCCCN)CC4)cc3)n2)CC1 [Compound 29, 1′-Acryloyl-6-{4-[4-(5-amino-pentanoyl)-piperazine-1-carbonyl]-phenylamino}-1′,2′,3′,4′,5′,6′-hexahydro-[2,4′]bipyridinyl-5-carboxylic acid amide hydrochloride] | < 100 nM
2 | C=CC(=O)N[C@H]1CCN(c2ccc(C(N)=O)c(Nc3ccc(Oc4ccnc(C(=O)NC)c4)cc3)n2)C1 [Compound 36, 6-((S)-3-Acryloylamino-pyrrolidin-1-yl)-2-[4-(2-methylcarbamoyl-pyridin-4-yloxy)-phenylamino]-nicotinamide] | < 100 nM
3 | C=CC(=O)N[C@H]1CCN(c2ccc(C(N)=O)c(Nc3ccc(N4CCCCC4)nc3)n2)C1 [Compound 39, (S)-6-(3-acrylamidopyrrolidin-1-yl)-2-((6-(piperidin-1-yl)pyridin-3-yl)amino)nicotinamide] | < 100 nM
4 | C=CC(=O)N[C@H]1CCN(c2ccc(C(N)=O)c(Nc3ccc(N4CCCC4)nc3)n2)C1 [Compound 41, 6-((S)-3-Acryloylamino-pyrrolidin-1-yl)-2-(6-pyrrolidin-1-yl-pyridin-3-ylamino)-nicotinamide] | < 100 nM
5 | C=CC(=O)N1CCCC(c2ccc(C(N)=O)c(Nc3ccc(CCN4CCCC4)cc3)n2)C1 (centres unmarked) [Compound 42, 1′-Acryloyl-6-[4-(2-pyrrolidin-1-yl-ethyl)-phenylamino]-1′,2′,3′,4′,5′,6′-hexahydro-[2,3′]bipyridinyl-5-carboxylic acid amide] | < 100 nM
6 | C=CC(=O)N1CCN(c2ccc(C(N)=O)c(Nc3cccnc3)n2)CC1 [Compound 43] | < 100 nM
7 | C=CC(=O)N[C@@H]1CCN(c2ccc(C(N)=O)c(Nc3ccc(C(=O)N4CCOCC4)cc3)n2)C1 [Compound 47, 6-((R)-3-Acryloylamino-pyrrolidin-1-yl)-2-[4-(morpholine-4-carbonyl)-phenylamino]-nicotinamide] | < 100 nM
8 | C=CC(=O)N[C@H]1CCN(c2ccc(C(N)=O)c(Nc3ccc(F)cc3)n2)C1 [Compound 48, 6-((S)-3-Acryloylamino-pyrrolidin-1-yl)-2-(4-fluoro-phenylamino)-nicotinamide] | < 100 nM
9 | C=CC(=O)N[C@H]1CCN(c2ccc(C(N)=O)c(Nc3cncc(F)c3)n2)C1 [Compound 51, 6-((S)-3-Acryloylamino-pyrrolidin-1-yl)-2-(5-fluoro-pyridin-3-ylamino)-nicotinamide] | < 100 nM
10 | C=CC(=O)N[C@H]1CCN(c2ccc(C(N)=O)c(Nc3ccc(Oc4ccccc4)cc3)n2)C1 [Compound 54, 6-((S)-3-Acryloylamino-pyrrolidin-1-yl)-2-(4-phenoxy-phenylamino)-nicotinamide] | < 100 nM
11 | C=CC(=O)N[C@H]1CCN(c2ccc(C(N)=O)c(Nc3cncc(C)c3)n2)C1 [Compound 55, 6-((S)-3-Acryloylamino-pyrrolidin-1-yl)-2-(5-methyl-pyridin-3-ylamino)-nicotinamide] | < 100 nM
12 | C=CC(=O)N[C@H]1CCN(c2ccc(C(N)=O)c(Nc3cccc(C)c3)n2)C1 [Compound 57, 6-((S)-3-Acryloylamino-pyrrolidin-1-yl)-2-m-tolylamino-nicotinamide] | < 100 nM
13 | C=CC(=O)N[C@H]1CCN(c2ccc(C(N)=O)c(Nc3ccc(NC(=O)C(C)(C)C)cc3)n2)C1 [Compound 59, 6-((S)-3-Acryloylamino-pyrrolidin-1-yl)-2-[4-(2,2-dimethyl-propionylamino)-phenylamino]-nicotinamide] | 100 to 1000 nM
14 | C=CC(=O)N1CCC(c2ccc(C(N)=O)c(Nc3ccc(C(=O)N4CCN(C(=O)CCCCNC(=S)Nc5ccc(C6=C7C(C)=CC(C)=[N+]7[B-](F)(F)n7c(C)cc(C)c76)cc5)CC4)cc3)n2)CC1 [Compound 63, 1′-Acryloyl-6-{4-[4-(5-{3-[4-(4,4-difluoro-1,3,5,7-tetramethyl-3a,4alambda4-diaza-4lambda4-bora-s-indacen-8-yl)-phenyl]-thioureido}-pentanoyl)-piperazine-1-carbonyl]-phenylamino}-1′,2′,3′,4′,5′,6′-hexahydro-[2,4′]bipyridinyl-5-carboxylic acid amide] | < 100 nM
15 | C=CC(=O)N1CCC(c2ccc(C(N)=O)c(Oc3ccc(Oc4ccccc4)cc3)n2)CC1 [Compound 64, 6-(1-acryloylpiperidin-4-yl)-2-(4-phenoxyphenoxy)nicotinamide] | < 100 nM
16 | C=CC(=O)N1C[C@@H]2C[C@H]1CN2c1ccc(C(N)=O)c(Oc2ccc(Oc3ccc(F)cc3F)cc2)n1 [Compound 66, 6-((1S,4S)-5-Acryloyl-2,5-diaza-bicyclo[2.2.1]hept-2-yl)-2-[4-(2,4-difluoro-phenoxy)-phenoxy]-nicotinamide] | < 100 nM
17 | C=CC(=O)N1CCC(c2ccc(C(N)=O)c(Oc3ccc(Oc4ccccc4)cc3)n2)C1 (centres unmarked) [Compound 70, 6-(1-acryloylpyrrolidin-3-yl)-2-(4-phenoxyphenoxy)nicotinamide] | < 100 nM
18 | C=CC(=O)N1C2CCC1CC(c1ccc(C(N)=O)c(Oc3ccc(Oc4ccccc4)cc3)n1)C2 (centres unmarked) [Compound 71, 6-(8-Acryloyl-8-aza-bicyclo[3.2.1]oct-3-yl)-2-(4-phenoxy-phenoxy)-nicotinamide] | < 100 nM
19 | C=CC(=O)N[C@H]1CCN(c2ccc(C(N)=O)c(Oc3ccc(Oc4cccc(F)c4)cc3)n2)C1 [Compound 73, (S)-6-(3-acrylamidopyrrolidin-1-yl)-2-(4-(3-fluorophenoxy)phenoxy)nicotinamide] | < 100 nM
20 | CN(C)C/C=C/C(=O)N1CCC(c2ccc(C(N)=O)c(Oc3ccc(Oc4ccccc4)cc3)n2)CC1 [Compound 76, 1′-((E)-4-Dimethylamino-but-2-enoyl)-6-(4-phenoxy-phenoxy)-1′,2′,3′,4′,5′,6′-hexahydro-[2,4′]bipyridinyl-5-carboxylic acid amid] | < 100 nM
21 | C=CC(=O)N1CCC(O)(c2ccc(C(N)=O)c(Oc3ccc(Oc4ccccc4)cc3)n2)C(O)C1 (centres unmarked) [Compound 77, 1′-Acryloyl-3′,4′-dihydroxy-6-(4-phenoxy-phenoxy)-1′,2′,3′,4′,5′,6′-hexahydro-[2,4′]bipyridinyl-5-carboxylic acid amide] | < 100 nM
22 | C=CC(=O)N[C@H]1CCN(c2ccc(C(N)=O)c(Oc3ccc(Oc4cccc(C#N)c4)cc3)n2)C1 [Compound 79, (S)-6-(3-acrylamidopyrrolidin-1-yl)-2-(4-(3-cyanophenoxy)phenoxy)nicotinamide] | < 100 nM

Next, values leading:

Row | IC50 | Structure (SMILES)
23 | < 100 nM | C=CC(=O)N1CCC(c2ccc(C(N)=O)c(Nc3ccc(N4C[C@@H](C)O[C@@H](C)C4)nc3)n2)CC1 [Compound 32, 1′-Acryloyl-6-[6-((2R,6S)-2,6-dimethyl-morpholin-4-yl)-pyridin-3-ylamino]-1′,2′,3′,4′,5′,6′-hexahydro-[2,4′]bipyridinyl-5-carboxylic acid amide]
24 | < 100 nM | C=CC(=O)N[C@H]1CCN(c2ccc(C(N)=O)c(Nc3ccc(N4CC(C)OC(C)C4)cc3)n2)C1 (stereo partly drawn) [Compound 33, 6-((S)-3-Acryloylamino-pyrrolidin-1-yl)-2-[4-(2,6-dimethyl-morpholin-4-yl)-phenylamino]-nicotinamide]
25 | < 100 nM | C=CC(=O)N1CCN(c2ccc(C(N)=O)c(Nc3ccc(C)nc3)n2)CC1 [Compound 34]
26 | < 100 nM | C=CC(=O)N[C@H]1CCN(c2ccc(C(N)=O)c(Nc3ccc(C(=O)N4CCOCC4)cc3)n2)C1 [Compound 35, 6-((S)-3-Acryloylamino-pyrrolidin-1-yl)-2-[4-(morpholine-4-carbonyl)-phenylamino]-nicotinamide]
27 | < 100 nM | C=CC(=O)N1CCC(c2ccc(C(N)=O)c(Nc3ccc(C)nc3)n2)CC1 [Compound 49]
28 | < 100 nM | C=CC(=O)N1CCC(Nc2ccc(C(N)=O)c(Nc3cccc(C)c3)n2)C1 (centres unmarked) [Compound 50, 6-(1-Acryloyl-pyrrolidin-3-ylamino)-2-m-tolylamino-nicotinamide]
29 | < 100 nM | C=CC(=O)N[C@H]1CCN(c2ccc(C(N)=O)c(Nc3cccnc3)n2)C1 [Compound 52, 6-((S)-3-Acryloylamino-pyrrolidin-1-yl)-2-(pyridin-3-ylamino)-nicotinamide]
30 | < 100 nM | C=CC(=O)N1CCC(c2ccc(C(N)=O)c(Nc3cccnc3)n2)CC1 [Compound 53, 1′-Acryloyl-6-(pyridin-3-ylamino)-1′,2′,3′,4′,5′,6′-hexahydro-[2,4′]bipyridinyl-5-carboxylic acid amide]
31 | < 100 nM | C=CC(=O)N[C@@H]1CCCN(c2ccc(C(N)=O)c(Nc3ccc(CCN4CCCC4)cc3)n2)C1 [Compound 56, (R)-3-Acryloylamino-6′-[4-(2-pyrrolidin-1-yl-ethyl)-phenylamino]-3,4,5,6-tetrahydro-2H-[1,2′]bipyridinyl-5′-carboxylic acid amide]
32 | 100 to 1000 nM | C=CC(=O)N1CCN(c2ccc(C(N)=O)c(N(C)c3cccc(C)c3)n2)CC1 [Compound 58, 6-(4-Acryloyl-piperazin-1-yl)-2-(methyl-m-tolyl-amino)-nicotinamide]
33 | 100 to 1000 nM | C=CC(=O)N[C@H]1CCN(c2ccc(C(N)=O)c(Nc3ccc(F)c(C)c3)n2)C1 [Compound 60, 6-((S)-3-Acryloylamino-pyrrolidin-1-yl)-2-(4-fluoro-3-methyl-phenylamino)-nicotinamide]
34 | 1000 to 5000 nM | C=CC(=O)N[C@@H]1CCN(c2ccc(C(N)=O)c(N)n2)C1 [Compound 61, 6-((R)-3-Acryloylamino-pyrrolidin-1-yl)-2-amino-nicotinamide]
35 | > 5000 nM | C=CC(=O)N[C@H]1CCN(c2ccc(C(N)=O)c(NC3CCN(C)CC3)n2)C1 [Compound 62, 6-((S)-3-Acryloylamino-pyrrolidin-1-yl)-2-(1-methyl-piperidin-4-ylamino)-nicotinamide]
